The text below walks through data of US7709645B2, “Pyrrolo-pyridine kinase modulators” (SGX Pharmaceuticals, Inc., priority 2004, dated 2010).

Changes are numbered by the printed parent chain. pIC50: −log10 of the molar value.

One test deals with T1, Abl T315I kinase domain (unphosphorylated) (Mus musculus, UniProt P00520, T315I).
T1 construct: purified and unphosphorylated T315I Abl kinase domain; made in house; host or cells: E. coli BL21(DE3) strains
T1 sequence (P00520 242-493 T315I limits assumed): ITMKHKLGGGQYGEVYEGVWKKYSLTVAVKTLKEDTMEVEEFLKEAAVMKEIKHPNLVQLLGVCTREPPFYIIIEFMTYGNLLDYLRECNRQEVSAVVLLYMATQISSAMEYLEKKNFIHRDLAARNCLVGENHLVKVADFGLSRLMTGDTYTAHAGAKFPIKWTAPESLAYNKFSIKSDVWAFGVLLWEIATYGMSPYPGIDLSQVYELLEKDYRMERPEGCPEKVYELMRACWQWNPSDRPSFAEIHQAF
In words: Abl_T315I Bioassay (c-Abl PK/LDH coupled enzyme assay). The test is classed as biochemical. As to conditions: 10 μM ATP. An excerpt: Although the first of these examples uses the kinase domain of a mutant form of Abl T315I (“Abl T315I KD”), the kinase assays may use various forms of mutant and wild type enzymes, including, for example, the entire protein, the kinase domain, or a portion thereof (e.g. Abl Y393F). The kinases used in the assays may also be of varying phosphorylation states. In the c-Abl example, a mutant kinase at a zero phosphorylation state was used.
In the c-Abl Pyruvate Kinase (PK)/Lactate Dehydrogenase (LDH) Coupled Assay the protein kinase dependant phosphorylation of a substrate peptide was coupled to the oxidation of NADH. The oxidation of NADH to NAD+ was detected by monitoring a decrease in absorbance at 340 nm.
Materials: Abl substrate peptide=EAIYAAPFAKKK (SEQ ID NO:1)-OH (Biopeptide, San Diego, Calif.); βNADH (Sigma Cat#N-8129, FW=709.4); 2M MgCl2; 1M HEPES buffer, pH 7.5; Phosphoenolpyruvate (PEP) (Sigma Cat#P-7002, FW=234); Lactate dehydrogenase (LDH) (Worthington Biochemical Cat#2756); Pyruvate Kinase (PK) (Sigma Cat#P-9136); ATP (Sigma Cat#A-3377, FW=551); Greiner 384-well UV star plate; and purified and unphosphorylated T315I Abl kinase domain.
Stock Solutions: 10 mM NADH (7.09 mg/ml in miliQH2O) made fresh daily; 10 mM Abl substrate peptide (13.4 mg/ml in miliQH2O) stored at −20° C.; 100 mM HEPES buffer, pH 7.5 (5 ml 1M stock+45 ml miliQH2O); 100 mM MgCl2 (5 ml 2M MgCl2+95 ml dH2O); 100 mM PEP (23.4 mg/ml in dH2O) stored at −20° C.; 10 mM ATP (5.51 mg/ml in dH2O) stored at −20° C. (diluted 50 μl into total of 10 ml miliQH2O daily=50 μM ATP working stock); 1000 U/ml PK (U/mg varies with lot) flash-frozen under liquid N2 and stored at −80° C.; and 1000 U/ml LDH (U/mg varies with lot) flash-frozen under liquid N2 and stored at −80° C.
Standard Assay Setup for 384-well format (50 μl reaction): 300 μM NADH; 10 mM MgCl2; 2 mM PEP; 45 U/ml PK; 60 U/ml LDH; 200 μM Abl substrate peptide; 2.5 μl test compound (in DMSO); 2 μg/ml Abl kinase domain; 10 μM ATP; 100 mM HEPES buffer. Positive controls contained DMSO with no test compound. Negative controls contained 5 μl of 0.5M EDTA (50 mM in the assay). The dephosphorylated form of the c-Abl T315I mutant was used in the biochemical screening assays. The kinase reaction was initiated at time t=0 by the addition of ATP.
Activity was measured by following the time-dependent loss of NADH by absorbance spectroscopy at 340 nm. The linear portion of the resulting progress curve was then analyzed by linear regression to get the activity in absorbance units/time, reported as the slope of that best fit line (moles/unit time can be calculated from using molar extinction coefficient for NADH at 340 nm, 6250M^−1 cm^−1).
Data was evaluated using the equation: Z′=1−[3*(σ++σ−)/|μ+−μ−|](Zhang, et al., 1999 J Biomol Screening 4(2) 67-73), where μ denotes the mean and σ the standard deviation. The subscript designates positive or negative controls. The Z′ score for a robust screening assay should be ≧0.50. The typical threshold=μ+−3*σ+. Any value that falls below the threshold was designated a “hit”.
Dose response was analyzed using the equation: y=min+{(max−min)/(1+10^[compound]−logIC50)}, where y is the observed initial slope, max=the slope in the absence of inhibitor, min=the slope at infinite inhibitor, and the IC50 is the [compound] that corresponds to ½ the total observed amplitude (Amplitude=max−min).
To measure modulation, activation, or inhibition of Abl KD, a test compound was added to the assay at a range of concentrations. Inhibitors may inhibit Abl KD activity at an IC50 in the micromolar range, the nanomolar range, or, for example, in the subnanomolar range.
An open-reading frame for c-Abl was amplified from a Mus musculus (mouse) cDNA library prepared from freshly harvested mouse liver using a commercially available kit (Invitrogen) by PCR using the following primers: […]
The c-Abl T315I KD (kinase domain) was purified as follows. […]
The molecule `COc1ccccc1-c1c[nH]c2ncc(-c3csc(C(=O)N4CCN(C)CC4)c3)cc12` [AE4] showed a pIC50 greater than 7.30.

Regarding `COc1ccccc1-c1c[nH]c2ncc(-c3cncc(C(=O)N(C)CCN(C)C)c3)cc12` [AE5], the pIC50 is greater than 7.30.

For `COc1ccccc1-c1c[nH]c2ncc(-c3cccc(C(=O)N4CCC(CO)CC4)c3)cc12` [AE6], the pIC50 is greater than 7.30.

As for `COc1ccccc1-c1c[nH]c2ncc(-c3cccc(C(=O)N4CCN(C(C)C)CC4)c3)cc12` [AE7], the pIC50 was greater than 7.30.

Turning to `COc1ccccc1-c1c[nH]c2ncc(-c3ccc4c(c3)C(=O)NCC(=O)N4)cc12` [AE12], the pIC50 is greater than 7.30.

In turn, `CCc1ccccc1-c1c[nH]c2ncc(-c3cncc(C(=O)N(C)C)c3)cc12` [AE15] gave a pIC50 greater than 7.30.

With `CCOc1ccccc1-c1c[nH]c2ncc(-c3cncc(C(=O)N(C)C)c3)cc12` [AE16], the pIC50 is greater than 7.30.

Molecule `CCOc1ccccc1-c1c[nH]c2ncc(-c3cncc(C(=O)NC)c3)cc12` [AE17] gave a pIC50 greater than 7.30.

`CCc1ccccc1-c1c[nH]c2ncc(-c3ccnc(F)c3)cc12` [AE18] gave a pIC50 greater than 7.30.

In turn, `COc1ccccc1-c1c[nH]c2ncc(-c3c[nH]cn3)cc12` [AE19] had a pIC50 greater than 7.30.

Molecule `COc1ccccc1-c1c[nH]c2ncc(-c3cccc(C(=O)N(C)CCN(C)C)c3)cc12` [AE23] showed a pIC50 greater than 7.30.

The molecule `COc1ccccc1-c1c[nH]c2ncc(-c3cccc(C(=O)N4CCN(CCN5CCOCC5)CC4)c3)cc12` [AE24] showed a pIC50 greater than 7.30.

Molecule `COc1ccccc1-c1c[nH]c2ncc(-c3ccc(O)c(C(=O)N(C)CCN(C)C)c3)cc12` [AE25] gave a pIC50 greater than 7.30.

In the case of `O=C(c1cccc(-c2cnc3[nH]cc(-c4ccccc4F)c3c2)c1)N1CCOCC1` [AE29], the negative logarithm of the IC50 (pIC50) was greater than 7.30.

`COc1cccc(OC)c1-c1c[nH]c2ncc(-c3cccc(C(=O)N4CCOCC4)c3)cc12` [AE37]: the negative logarithm of the IC50 (pIC50) is greater than 7.30.

`Oc1cccc(-c2cnc3[nH]cc(-c4ccoc4)c3c2)c1` [AE47]: the negative logarithm of the IC50 (pIC50) was greater than 7.30.

`Oc1cccc(-c2cnc3[nH]cc(Sc4ccccc4)c3c2)c1` [AE51] had a pIC50 of 6.70 to 7.30.

For a further test, the target named is T2, T315I mutant form of BCR-ABL in Ba/F3 cells (Homo sapiens, UniProt P00519, T315I).
T2 construct: expressed in transfected cells; host or cells: Ba/F3 cells; the other entry of the earlier key: BCR (P11274, Breakpoint cluster region protein)
T2 sequence (P00519 242-493 T315I limits assumed): T1 sequence (P00520 242-493 T315I limits assumed) with S95N
In words: Abl_T315I p-ELISA Cellular Assay (BCR-ABL phospho-ELISA). The following applies: 60-120 minutes incubation. In kind it is cell-based. How it is done: Cells (Ba/F3 cells transfected with WT BCR-ABL, other kinases, or T315I, Y253F, M351T, E255K, or other mutant forms of BCR-ABL) were grown in the absence of IL-3 at least ½ week before the assay. The day before assay, the cells were fed with fresh media so that at the time of assay the cells were in log phase. Ba/F3 cells that had been grown in the absence of IL-3 for at least ½ week were resuspended in RPMI 1640 so that each well of a 96-well plate would contain approximately 200,000 cells. Cells were distributed in a 96-well plate containing serially diluted concentrations of test compounds. Cells were typically incubated with or without test compounds for 60-120 minutes at 5% CO2, 37° C. The incubation was performed with or without other additives such as 10% FCS or 50% human plasma. After incubation of compounds, lysis buffer was added and incubated for 10-15 minutes; the lysate was cleared by centrifugation.
To make the ELISA plate, commercially available Anti-ABL antibodies (e.g. (Ab-3, Calbiochem OP20) were prepared at a concentration of 0.125 μg/ml in coating buffer (0.1M Na-carbonate, pH 9.5), and plated at 10 ml per plate (12.5 μl 100 μg/ml Ab/10 ml). In a high binding multi-well plate, 100 μl Ab in coating buffer were added to each well, and each plate was covered with a plate seal and incubated overnight at 4° C.
Excess antibody was removed and the ELISA plate was washed 3-4 times with 200 μl of wash buffer (0.05% Tween in PBS, pH 7.4). 150 μl of lysate (see above) were transferred to the ELISA plate. Plates were sealed and incubated 2 hours at room temperature. The detection antibody (e.g. HRP conjugated anti-pTyr or unconjugated α-p-Y 4G10, Upstate) was prepared in assay diluent. The antibody was diluted 1:1000 (stock=2 μg/μl, 200 μg in 100 μl; f.c.=2 μg/ml) in assay diluent and 10 ml of diluted antibody per plate were added. The lysate was removed from the ELISA plates, and wells were washed four times with 200 μl of wash buffer per well. 100 μl of detection antibody was added to each well; the plate was covered, and incubated 1 hr at room temperature (21° C.). Excess detection antibody was removed from the ELISA plates, and the wells were washed four times with 200 μl of wash buffer per well.
If necessary, (i.e. for unconjugated anti-pTyr antibody) secondary antibody (goat anti-rabbit HRP) was diluted 1:3000 in assay diluent (3.33 μl per 10 ml diluent) and added at 10 ml of diluted antibody per plate. Excess secondary antibody was removed from the ELISA plate, and the plate was washed four times with 200 μl per well of wash buffer.
Substrate Reagent A and Substrate Reagent B (Pierce Cat#37070 SuperSignal ELISA Pico Chemiluminescent Substrate) were added immediately before use (10 ml resultant solution per plate). 100 μl substrate were added per well, mixed for 1 minute, and chemiluminescent signal was measured with a luminometer.
The molecule `COc1ccccc1-c1c[nH]c2ncc(-c3csc(C(=O)N4CCN(C)CC4)c3)cc12` [AE4] showed a pIC50 of 6.00 to 7.00.

The molecule `COc1ccccc1-c1c[nH]c2ncc(-c3cncc(C(=O)N(C)CCN(C)C)c3)cc12` [AE5] showed a pIC50 greater than 7.00.

`COc1ccccc1-c1c[nH]c2ncc(-c3cccc(C(=O)N4CCC(CO)CC4)c3)cc12` [AE6]: the pIC50 is greater than 7.00.

`COc1ccccc1-c1c[nH]c2ncc(-c3cccc(C(=O)N4CCN(C(C)C)CC4)c3)cc12` [AE7]: the pIC50 is greater than 7.00.

Molecule `CCc1ccccc1-c1c[nH]c2ncc(-c3cncc(C(=O)N(C)C)c3)cc12` [AE15] showed a pIC50 of 6.00 to 7.00.

`CCOc1ccccc1-c1c[nH]c2ncc(-c3cncc(C(=O)N(C)C)c3)cc12` [AE16] showed a pIC50 of 6.00 to 7.00.

On to `CCc1ccccc1-c1c[nH]c2ncc(-c3ccnc(F)c3)cc12` [AE18], for which the pIC50 was 6.00 to 7.00.

As for `COc1ccccc1-c1c[nH]c2ncc(-c3c[nH]cn3)cc12` [AE19], the pIC50 was 6.00 to 7.00.

The molecule `COc1ccccc1-c1c[nH]c2ncc(-c3ccc(O)c(C(=O)N(C)CCN(C)C)c3)cc12` [AE25] showed a pIC50 greater than 7.00.

In turn, `O=C(c1cccc(-c2cnc3[nH]cc(-c4ccccc4F)c3c2)c1)N1CCOCC1` [AE29] had a pIC50 of 6.00 to 7.00.

On to `COc1cccc(OC)c1-c1c[nH]c2ncc(-c3cccc(C(=O)N4CCOCC4)c3)cc12` [AE37], for which the negative logarithm of the IC50 (pIC50) is greater than 7.00.

The term pIC50 denotes the IC50 on a negative log10 scale, so that one unit is a factor of ten.
